This assay concerns M. tuberculosis clinical isolates. Description: MIC against clinical strains (BACTEC MGIT 960 System). The following applies: Mycobacterium tuberculosis. It counts as cell-based.

Turning to `Cl.NC[C@H]1OB2OCCOc3ccc(Cl)c1c32` [Example 4, (S)-(3-chloro-7,8-dihydro-2H-1,6,9-trioxa-9a-borabenzo[cd]azulen-2-yl)methanamine hydrochloride], the MIC (usually the lowest concentration that inhibits growth of the organism) (strain 330, resistant clinical isolate, resistance HSR (Tables 2B, 2D)) worked out at 0.08 µM.

`NC[C@H]1OB2OCCOc3ccc(Cl)c1c32` [Example G4-CI] showed an MIC (against 85 of the 96 clinical isolate strains tested (sensitive and resistant)) of less than 0.1 µM.

Values taken from patent US20180037595A1, “BENZOXABOROLE COMPOUNDS AND USES THEREOF” (GLAXOSMITHKLINE INTELLECTUAL PROPERTY (NO.2) LIMITED, priority 2015, published 2018).
